Laboratory results from patent US5298521A, “1,5-diphenyl-3-pyrazolylalkyl-N-hydroxydithiocaramates, compositions and use” (Ortho Pharmaceutical Corporation, priority 1993, dated 1994).

How the values were obtained:
[1] = target: T1, RBL-1 cell 5-lipoxygenase (Rattus norvegicus, UniProt P12527); test: RBL-1 cell 5-lipoxygenase, cell homogenate supernatant (Procedure II); assay type: biochemical; settings: RBL-1 homogenate; for inhibition at 3 µM: read-out: PROC. II % INHIBITION 5-LO; for IC50: read-out: PROC. II IC50 5-LO
T1 construct: the supernatant was saved as the source of enzymes; endogenous in cells; host or cells: RBL-1 rat basophilic leukemia cells, homogenate supernatant
T1 sequence (P12527 1-673): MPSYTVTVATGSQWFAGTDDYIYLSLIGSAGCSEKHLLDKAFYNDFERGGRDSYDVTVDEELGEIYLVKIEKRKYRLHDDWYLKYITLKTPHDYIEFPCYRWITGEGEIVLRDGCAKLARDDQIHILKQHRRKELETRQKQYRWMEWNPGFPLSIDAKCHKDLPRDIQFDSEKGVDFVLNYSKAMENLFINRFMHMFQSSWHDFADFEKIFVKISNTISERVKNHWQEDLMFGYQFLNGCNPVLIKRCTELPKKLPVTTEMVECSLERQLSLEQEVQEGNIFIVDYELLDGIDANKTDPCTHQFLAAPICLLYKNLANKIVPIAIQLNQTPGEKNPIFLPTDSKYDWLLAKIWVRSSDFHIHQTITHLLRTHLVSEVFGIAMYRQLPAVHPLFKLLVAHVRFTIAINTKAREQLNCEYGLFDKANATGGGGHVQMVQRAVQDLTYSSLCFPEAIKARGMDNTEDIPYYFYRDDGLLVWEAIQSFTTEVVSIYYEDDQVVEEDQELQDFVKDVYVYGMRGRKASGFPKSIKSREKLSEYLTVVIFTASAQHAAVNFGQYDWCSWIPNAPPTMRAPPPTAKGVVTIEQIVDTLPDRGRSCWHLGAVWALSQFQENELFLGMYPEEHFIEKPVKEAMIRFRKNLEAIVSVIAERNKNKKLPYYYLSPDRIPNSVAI
Experimental: (§1) RBL-1 cell 5-lipoxygenase and cyclooxygenase
(§2) Rat basophilic leukemia cells (RBL-1; 5×10^7 viable cells/mL) were disrupted by homogenization on ice (four 20 sec bursts) with a Brinkman polytron. Complete cell breakage was verified microscopically. The homogenate was then centrifuged at 10,000×g for 48 minutes at 4° C. The pellet was discarded and the supernatant was saved as the source of enzymes. The supernatant was pre-incubated for five minutes at 37° C. in the presence of 2 mM of CaCl2 and compound or vehicle (1% DMSO). The conversion of AA into 5-LO products was initiated by adding 10 μL (50 μCi) of 1-^14 C-AA to each tube and incubated at 37° C. for 20 minutes. The reaction was stopped by adjusting the pH of each sample to 3 to 3.5 with 2M formic acid. Samples were extracted with three volumes of chloroform to isolate the products of 5-LO formed during the reaction. Fractions were dried under nitrogen, then resuspended in 40 μL of chloroform and spotted onto silica gel HL plates. The plates were developed in A-9 solvent. The dried plates were analyzed using a Bioscan Imaging TLC scanner to determine the percentage of radiolabelled AA converted to 5-HETE in each sample.

[2] = target: T2, RBL-1 cell cyclooxygenase (Rattus norvegicus, UniProt Q63921); test: RBL-1 cell cyclooxygenase, cell homogenate supernatant (Procedure II); assay type: biochemical; settings: RBL-1 homogenate; for inhibition at 3 µM: read-out: PROC. II % INHIBITION CO; for IC50: read-out: PROC. II IC50 CO
T2 construct: the supernatant was saved as the source of enzymes; endogenous in cells; host or cells: RBL-1 rat basophilic leukemia cells, homogenate supernatant
T2 sequence (Q63921 27-602): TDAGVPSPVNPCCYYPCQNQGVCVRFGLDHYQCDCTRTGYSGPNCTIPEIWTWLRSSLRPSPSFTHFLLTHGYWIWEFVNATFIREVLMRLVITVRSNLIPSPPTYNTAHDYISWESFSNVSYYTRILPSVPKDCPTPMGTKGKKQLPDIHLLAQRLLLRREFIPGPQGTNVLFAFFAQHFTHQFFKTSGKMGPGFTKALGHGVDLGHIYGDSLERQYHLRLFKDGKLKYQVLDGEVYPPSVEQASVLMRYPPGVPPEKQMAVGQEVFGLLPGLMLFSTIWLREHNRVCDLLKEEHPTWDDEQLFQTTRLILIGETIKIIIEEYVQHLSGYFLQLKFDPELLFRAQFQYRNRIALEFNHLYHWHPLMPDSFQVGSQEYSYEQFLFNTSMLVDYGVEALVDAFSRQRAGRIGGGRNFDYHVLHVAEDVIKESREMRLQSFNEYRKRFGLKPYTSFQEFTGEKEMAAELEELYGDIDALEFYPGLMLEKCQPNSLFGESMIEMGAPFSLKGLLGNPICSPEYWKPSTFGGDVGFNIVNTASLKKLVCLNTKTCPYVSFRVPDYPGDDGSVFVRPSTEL
Experimental: as §1, §2

| inhibition at 3 µM [1] [%] | IC50 [1] [nM] | inhibition at 3 µM [2] [%] | IC50 [2] [nM] | SMILES |
| --- | --- | --- | --- | --- |
| 100 | 570 | 100 | 8070 | COc1ccc(-n2nc(CSC(=S)N(O)C(C)C)cc2-c2ccc(Cl)cc2)cc1 [1-B] |
| 91 | – | 75 | – | COc1ccc(-n2nc(CSC(=S)N(C)O)c(Cl)c2-c2ccc(Cl)cc2)cc1 [1-C] |
| 70 | 70 | 0 | 1670 | COc1ccc(-n2nc(CSC(=S)N(O)C(C)C)c(Cl)c2-c2ccc(Cl)cc2)cc1 [1-D] |
| 73 | 40 | 0 | 1960 | COc1ccc(-n2nc(CSC(=S)N(O)C(C)C)c(Br)c2-c2ccc(Cl)cc2)cc1 [1-E] |
| 79 | 20 | 30 | 30 | COc1ccc(-n2nc(CSC(=S)N(O)C(C)C)cc2-c2ccc(C)cc2)cc1 [1-G] |
| 91 | – | 95 | – | COc1ccc(-n2nc(CSC(=S)N(C)O)c(Cl)c2-c2ccc(C)cc2)cc1 [1-H] |
